Data on 16 compounds can be found in ChEMBL document CHEMBL1127071, “Structure-activity relationships of C-terminal endothelin hexapeptide antagonists” (J Med Chem, 1993).

pIC50: −log10 of the molar value. Several values for one entry are separate records, joined by “and”; a condition that tells them apart may be missing. Identical values can stand only once. Where a SMILES comes first, the peptide text is derived from it. [ ]: non-standard residue; d: D form.

For one assay, the target named is T1, Endothelin receptor (Rattus norvegicus, UniProt P26684+P21451).
T1 sequence (P26684 whole entry): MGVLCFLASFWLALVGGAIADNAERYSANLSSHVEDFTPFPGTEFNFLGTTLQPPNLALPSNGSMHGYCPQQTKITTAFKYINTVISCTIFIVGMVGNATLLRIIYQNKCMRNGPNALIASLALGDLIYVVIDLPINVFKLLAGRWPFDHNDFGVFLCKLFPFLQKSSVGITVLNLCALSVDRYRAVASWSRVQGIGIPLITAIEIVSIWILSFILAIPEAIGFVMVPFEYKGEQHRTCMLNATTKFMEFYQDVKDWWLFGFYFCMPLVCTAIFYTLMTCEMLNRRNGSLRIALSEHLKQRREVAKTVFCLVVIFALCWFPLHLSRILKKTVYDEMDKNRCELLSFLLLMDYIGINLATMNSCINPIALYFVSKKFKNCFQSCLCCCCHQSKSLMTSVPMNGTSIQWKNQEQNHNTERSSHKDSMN
T1 sequence (P21451 whole entry): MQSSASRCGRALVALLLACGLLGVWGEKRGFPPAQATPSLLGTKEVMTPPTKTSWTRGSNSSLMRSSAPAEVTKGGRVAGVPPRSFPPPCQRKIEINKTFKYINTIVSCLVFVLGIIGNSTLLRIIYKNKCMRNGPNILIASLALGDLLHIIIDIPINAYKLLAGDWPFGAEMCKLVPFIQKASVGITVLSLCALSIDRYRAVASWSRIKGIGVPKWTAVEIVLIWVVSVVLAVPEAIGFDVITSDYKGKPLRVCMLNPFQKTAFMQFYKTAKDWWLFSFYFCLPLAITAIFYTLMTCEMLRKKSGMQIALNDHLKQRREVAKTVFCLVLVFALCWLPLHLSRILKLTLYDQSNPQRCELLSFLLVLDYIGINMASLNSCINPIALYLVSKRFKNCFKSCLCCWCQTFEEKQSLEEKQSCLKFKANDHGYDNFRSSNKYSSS
Description: Binding affinity against Endothelin receptor from rat heart ventricle. The class given is protein assay.
For orientation: IC50 means the concentration needed to halve the response being measured. The low end stands for inhibition by little substance, the high end for a need for much substance. As to `CC[C@H](C)[C@H](NC(=O)[C@H](CC(=O)O)NC(=O)[C@@H](CC(C)C)NC(=O)[C@H](Cc1c[nH]cn1)NC(C)=O)C(=O)N[C@H](C(=O)N[C@@H](Cc1c[nH]c2ccccc12)C(=O)O)[C@@H](C)CC`, the IC50 is 39 µM. Still for that read-out and setting: the value for `CC[C@H](C)[C@H](NC(=O)[C@H](CC(=O)O)NC(=O)[C@H](CC(C)C)NC(=O)[C@H](Cc1c[nH]cn1)NC(C)=O)C(=O)N[C@H](C(=O)N[C@H](Cc1c[nH]c2ccccc12)C(=O)O)[C@@H](C)CC` was > 50 µM; that for `CC[C@H](C)[C@H](NC(=O)[C@H](CC(=O)O)NC(=O)[C@H](CC(C)C)NC(=O)[C@@H](Cc1ccccc1)NC(C)=O)C(=O)N[C@@H](CCC(=O)O)C(=O)N[C@@H](Cc1c[nH]c2ccccc12)C(=O)O` was 5.2 µM; that for `CC[C@H](C)[C@H](NC(=O)[C@H](CC(=O)O)NC(=O)[C@H](CC(C)C)NC(=O)[C@@H](Cc1c[nH]cn1)NC(C)=O)C(=O)N[C@H](C(=O)N[C@@H](Cc1c[nH]c2ccccc12)C(=O)O)[C@@H](C)CC` was 4.1 µM and 4.5 µM.

Take `CC[C@H](C)[C@H](NC(=O)[C@H](CC(=O)O)NC(=O)[C@H](CC(C)C)NC(=O)[C@@H](Cc1ccccc1)NC(C)=O)C(=O)N[C@@H](CCCCN)C(=O)N[C@@H](Cc1c[nH]c2ccccc12)C(=O)O`: the IC50 is > 50 µM. Take `CC[C@H](C)[C@H](NC(=O)[C@H](CCCCN)NC(=O)[C@H](CC(=O)O)NC(=O)[C@H](CC(C)C)NC(=O)[C@@H](Cc1ccccc1)NC(C)=O)C(=O)N[C@@H](Cc1c[nH]c2ccccc12)C(=O)O`: the concentration for half-maximal inhibition (IC50) is > 50 µM. `CC[C@@H](C)[C@@H](NC(=O)[C@H](CC(=O)O)NC(=O)[C@H](CC(C)C)NC(=O)[C@H](Cc1c[nH]cn1)NC(C)=O)C(=O)N[C@H](C(=O)N[C@@H](Cc1c[nH]c2ccccc12)C(=O)O)[C@@H](C)CC`: the IC50 turned out to be 169 µM. Still for that read-out and setting: the value for `CC[C@H](C)[C@H](NC(=O)[C@H](CC(=O)O)NC(=O)[C@@H](Cc1ccccc1)NC(C)=O)C(=O)N[C@H](C(=O)N[C@@H](Cc1c[nH]c2ccccc12)C(=O)O)[C@@H](C)CC` (Ac-[dF]DIIW-OH) was 2.15 µM.

The target in a further assay is T2, Endothelin receptor type B (Rattus norvegicus, UniProt P21451).
T2 sequence (P21451 whole entry): T1 sequence (P21451 whole entry)
Description: Effective concentration against Endothelin B receptor from rat cerebellum. The class given is tissue-based.
One may read the pIC50 as the IC50 on a negative log10 scale, so that one unit is a factor of ten. With `CC[C@H](C)[C@H](NC(=O)[C@H](CC(=O)O)NC(=O)[C@H](CC(C)C)NC(=O)[C@@H](Cc1c[nH]cn1)NC(C)=O)C(=O)N[C@H](C(=O)N[C@@H](Cc1c[nH]c2ccccc12)C(=O)O)[C@@H](C)CC`, the negative logarithm of the IC50 (pIC50) was 5.04. Take `CC[C@H](C)[C@H](NC(=O)[C@H](CCCCN)NC(=O)[C@H](CC(=O)O)NC(=O)[C@H](CC(C)C)NC(=O)[C@@H](Cc1ccccc1)NC(C)=O)C(=O)N[C@@H](Cc1c[nH]c2ccccc12)C(=O)O`: the negative logarithm of the IC50 (pIC50) was < 5.00.

For the compound `CC[C@H](C)[C@H](NC(=O)[C@H](Cc1ccc(O)cc1)NC(=O)[C@@H](Cc1ccccc1)NC(C)=O)C(=O)N[C@H](C(=O)N[C@@H](Cc1c[nH]c2ccccc12)C(=O)O)[C@@H](C)CC`, the pIC50 was < 5.00. As for `CC[C@H](C)[C@H](NC(=O)[C@H](CC(=O)O)NC(=O)[C@H](CC(C)C)NC(=O)[C@@H](N)Cc1ccccc1)C(=O)N[C@H](C(=O)N[C@@H](Cc1c[nH]c2ccccc12)C(=O)O)[C@@H](C)CC`, the pIC50 is 5.59. Still for that read-out and setting: the value for `CC[C@H](C)[C@H](NC(=O)[C@@H](Cc1ccccc1)NC(C)=O)C(=O)N[C@@H](Cc1c[nH]c2ccccc12)C(=O)O` (Ac-[dF]-Ile-Trp-OH) was < 5.00; that for `CC[C@H](C)[C@H](NC(=O)[C@H](Cc1ccccc1)NC(=O)[C@H](CC(=O)O)NC(=O)[C@@H](Cc1ccccc1)NC(C)=O)C(=O)N[C@@H](Cc1c[nH]c2ccccc12)C(=O)O` (Ac-[dF]DFIW-OH) was 5.34; that for `CC[C@H](C)[C@H](NC(=O)[C@@H](NC(=O)[C@@H](Cc1ccccc1)NC(C)=O)[C@@H](C)CC)C(=O)N[C@@H](Cc1c[nH]c2ccccc12)C(=O)O` (Ac-[dF]IIW-OH) was < 5.00. The same measure, in the same setting: the value for `CC[C@H](C)[C@H](NC(=O)[C@H](CC(=O)O)NC(=O)[C@H](CC(C)C)NC(=O)[C@@H](Cc1ccccc1)NC(C)=O)C(=O)N[C@H](C(=O)N[C@@H](Cc1ccc(O)cc1)C(=O)O)[C@@H](C)CC` (Ac-[dF]LDIIY-OH) was 6.82; that for `CC[C@H](C)[C@H](NC(=O)[C@H](CC(=O)O)NC(=O)[C@H](CC(C)C)NC(=O)[C@@H](Cc1ccccc1)NC(C)=O)C(=O)N[C@H](C(=O)NC(Cc1cnc[nH]1)C(=O)O)[C@@H](C)CC` (mixture of isomers) was < 5.00; that for Ac-FLDIIW-OH was 4.73.
